# According to PubChem BioAssay (NCI):
#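 These data come from cells grown in 96-well plates and exposed to compound for 48 hours at five concentrations. GI50 marks 50% less growth. TGI marks complete inhibition of growth.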
# Legend:
# Assay in all cases: NCI-60 cell line screen, 48 h
# [1] = test system: MALME-3M melanoma
# [2] = test system: LOX IMVI melanoma
# [3] = test system: HCT-116 colon
# [4] = test system: SW-620 colon
# [5] = test system: HL-60(TB) leukemia
# [6] = test system: HS 578T breast
# [7] = test system: SK-MEL-2 melanoma
# [8] = test system: OVCAR-3 ovarian
# [9] = test system: MOLT-4 leukemia
# [10] = test system: IGROV1 ovarian
# [11] = test system: CCRF-CEM leukemia
# [12] = test system: M14 melanoma
# [13] = test system: T-47D breast
# [14] = test system: NCI-H226 lung
# [15] = test system: UACC-62 melanoma
# [16] = test system: SNB-75 CNS
# [17] = test system: U251 CNS
# [18] = test system: HOP-92 NSCLC
# [19] = test system: SK-OV-3 ovarian
# [20] = test system: NCI-H460 lung
# [21] = test system: UACC-257 melanoma
# [22] = test system: TK-10 renal
# [23] = test system: ACHN renal
# [24] = test system: OVCAR-5 ovarian
# [25] = test system: UO-31 renal
# [26] = test system: OVCAR-8 ovarian
# [27] = test system: PC-3 prostate
# [28] = test system: SF-295 CNS
# [29] = test system: BT-549 breast
# [30] = test system: SK-MEL-28 melanoma
# [31] = test system: HCT-15 colon
# [32] = test system: NCI-H522 lung
# [33] = test system: COLO 205 colon
# [34] = test system: KM12 colon
# [35] = test system: SN12C renal
# [36] = test system: A549 NSCLC
# [37] = test system: RXF 393 renal
# [38] = test system: HCC-2998 colon
# [39] = test system: HOP-62 NSCLC
# [40] = test system: K-562 leukemia
# [41] = test system: A498 renal
# [42] = test system: NCI/ADR-RES ovarian
# [43] = test system: SK-MEL-5 melanoma
# [44] = test system: SR leukemia
# [45] = test system: MCF7 breast
# [46] = test system: CAKI-1 renal
# [47] = test system: MDA-MB-435
# [48] = test system: SNB-19 CNS
# [49] = test system: MDA-MB-231 breast
# [50] = test system: NCI-H23 lung
# [51] = test system: 786-0 renal
# [52] = test system: RPMI-8226 leukemia
# [53] = test system: DU-145 prostate
# [54] = test system: OVCAR-4 ovarian
# [55] = test system: SF-539 CNS
# [56] = test system: HT29 colon
# [57] = test system: SF-268 CNS
structure (smiles),measurement,setting,value
Clc1nc2ccccc2nc1CI,GI50,[1],2.2 µM
same,TGI,[1],4.52 µM
same,GI50,[2],1.03 µM
same,TGI,[2],3.34 µM
same,GI50,[3],1.95 µM
same,TGI,[3],3.95 µM
same,GI50,[4],2.57 µM
same,TGI,[4],6.87 µM
same,GI50,[5],2.86 µM
same,TGI,[5],18.2 µM
same,GI50,[6],12.7 µM
same,TGI,[6],77.6 µM
same,GI50,[7],5.43 µM
same,TGI,[7],19.4 µM
same,GI50,[8],5.1 µM
same,TGI,[8],9.66 µM
same,GI50,[9],1.75 µM
same,TGI,[9],12.2 µM
same,GI50,[10],6.47 µM
same,TGI,[10],17 µM
same,GI50,[11],0.93 µM
same,TGI,[11],4.99 µM
same,GI50,[12],3.32 µM
same,TGI,[12],12.6 µM
same,GI50,[13],2.5 µM
same,TGI,[13],6.76 µM
same,GI50,[14],2.67 µM
same,TGI,[14],8.24 µM
same,GI50,[15],4.32 µM
same,TGI,[15],16.5 µM
same,GI50,[16],9.39 µM
same,TGI,[16],30.1 µM
same,GI50,[17],7.38 µM
same,TGI,[17],20.8 µM
same,GI50,[18],1.81 µM
same,TGI,[18],6.82 µM
same,GI50,[19],14.3 µM
same,TGI,[19],30.4 µM
same,GI50,[20],11 µM
same,TGI,[20],28.5 µM
same,GI50,[21],12.9 µM
same,TGI,[21],26.2 µM
same,GI50,[22],3.94 µM
same,TGI,[22],8.7 µM
same,GI50,[23],1.78 µM
same,TGI,[23],3.27 µM
same,GI50,[24],8.26 µM
same,TGI,[24],22 µM
same,GI50,[25],2.05 µM
same,TGI,[25],5.17 µM
same,GI50,[26],3.42 µM
same,TGI,[26],12.4 µM
same,GI50,[27],8.81 µM
same,TGI,[27],22.5 µM
same,GI50,[28],18.9 µM
same,TGI,[28],44.9 µM
same,GI50,[29],6.13 µM
same,TGI,[29],18.2 µM
same,GI50,[30],9.31 µM
same,TGI,[30],23 µM
same,GI50,[31],2.41 µM
same,TGI,[31],6.46 µM
same,GI50,[32],1.77 µM
same,TGI,[32],3.58 µM
same,GI50,[33],2.17 µM
same,TGI,[33],4.06 µM
same,GI50,[34],18.2 µM
same,TGI,[34],46.5 µM
same,GI50,[35],4.15 µM
same,TGI,[35],15.6 µM
same,GI50,[36],19.2 µM
same,TGI,[36],38.6 µM
same,GI50,[37],3.08 µM
same,TGI,[37],11.7 µM
same,GI50,[38],19.1 µM
same,TGI,[38],35.9 µM
same,GI50,[39],13.4 µM
same,TGI,[39],30.6 µM
same,GI50,[40],1.74 µM
same,TGI,[40],> 32.5 µM
same,GI50,[41],20.5 µM
same,TGI,[41],42.9 µM
same,GI50,[42],4.1 µM
same,TGI,[42],18.1 µM
same,GI50,[43],2.6 µM
same,TGI,[43],7.82 µM
same,GI50,[44],0.638 µM
same,GI50,[45],2.79 µM
same,TGI,[45],11.9 µM
same,GI50,[46],5.65 µM
same,TGI,[46],13.2 µM
same,GI50,[47],2.35 µM
same,TGI,[47],6.61 µM
same,GI50,[48],16.2 µM
same,TGI,[48],37.4 µM
same,GI50,[49],3.14 µM
same,TGI,[49],9.08 µM
same,GI50,[50],6.38 µM
same,TGI,[50],25.3 µM
same,GI50,[51],3.95 µM
same,TGI,[51],13.8 µM
same,GI50,[52],4.33 µM
same,TGI,[52],21.9 µM
same,GI50,[53],17.1 µM
same,TGI,[53],30.8 µM
same,GI50,[54],5.34 µM
same,TGI,[54],18.3 µM
same,GI50,[55],2.34 µM
same,TGI,[55],6.27 µM
same,GI50,[56],3.93 µM
same,TGI,[56],13.5 µM
same,GI50,[57],5.23 µM
same,TGI,[57],17.9 µM
